Values of other authors, collected in patent US20120189739A1, “Naturally-Sweetened Reduced-Calorie Base Syrup Compositions and Compositions Sweetened Therewith” (IMPERIAL SUGAR COMPANY, priority 2010, published 2012).

Details: Prakash et al. 2008; Kinghorn et al. 1999

Structure (SMILES)	times sweeter than sucrose
C=C1C[C@@]23CC[C@H]4[C@@](C)(CCC[C@@]4(C)C(=O)O[C@@H]4O[C@H](CO)[C@@H](O)[C@H](O)[C@H]4O)[C@@H]2CC[C@]1(O[C@@H]1O[C@H](CO)[C@@H](O)[C@H](O[C@@H]2O[C@H](CO)[C@@H](O)[C@H](O)[C@H]2O)[C@H]1O[C@@H]1O[C@H](CO)[C@@H](O)[C@H](O)[C@H]1O)C3 [rebaudioside A]	200-300 times
C=C1C[C@@]23CC[C@H]4[C@@](C)(CCC[C@@]4(C)C(=O)O[C@@H]4O[C@H](CO)[C@@H](O)[C@H](O)[C@H]4O)[C@@H]2CC[C@]1(O[C@@H]1O[C@H](CO)[C@@H](O)[C@H](O)[C@H]1O[C@@H]1O[C@H](CO)[C@@H](O)[C@H](O)[C@H]1O)C3 [stevioside]	about 200 times
